The values below come from ChEMBL document CHEMBL1124518, “Nonsteroidal cardiotonics. 2. The inotropic activity of linear, tricyclic 5-6-5 fused heterocycles” (1989).

Test [1] is filed under the species Felis catus. The experiment in a line: Effective dose required to produce an increase in dP/dt5 by 1500 mmHg/s in cats. It is filed as functional.
Test [2] relates to Canis familiaris. The test is described as follows: Maximum increase in dP/dt when administered intravenously in dogs at 1 mg/kg dose. It is filed as functional, Canis lupus familiaris. The conditions noted are these: route intravenous.
Test [3] is filed under the species Canis familiaris. The test is described as follows: Effective dose required to produce an increase in dP/dt5 by 1500 mmHg/s in dogs. It counts as functional, Canis lupus familiaris.
The subject of test [4] is Canis familiaris. The experiment in a line: Maximum increase in dP/dt60 when administered orally in dogs at dose 1 mg/kg. It is filed as functional, Canis lupus familiaris. The conditions noted are these: route oral.
The subject of test [5] is Canis familiaris. The test is described as follows: Amount of time during which increase in administered orally in conscious dogs at 1 mg/kg. The conditions noted are these: route oral. It counts as functional, Canis lupus familiaris.
The subject of test [6] is Canis familiaris. The test is described as follows: Time after which maximum increase in contractility was observed when administered orally in conscious dogs at 1 mg/kg. It counts as functional, Canis lupus familiaris. Conditions: route oral.
Test [7] is filed under the species Rattus norvegicus. The experiment in a line: Effective dose required to produce an increase in dP/dt5 by 1500 mmHg/s in rats. It is filed as functional.
Test [8] relates to Rattus norvegicus. The test is described as follows: Maximum increase in dP/dt when administered intravenously in rats at 1 mg/kg. Conditions: route intravenous. It is filed as functional.
The subject of test [9] is Felis catus. The test is described as follows: Maximum increase in dP/dt when administered intravenously in cats at 0.3 mg/kg dose. Conditions: route intravenous. It counts as functional.
Test [10] has as its system Rattus norvegicus. The test is described as follows: Maximum increase in dP/dt when administered intravenously in rats at 10 mg/kg dose. It is filed as functional. The arrangement: unit not given here. Conditions: route intravenous.
Test [11] deals with Felis catus. The test is described as follows: Maximum increase in dP/dt when administered intravenously in cats at 0.1 mg/kg dose. It is filed as functional. The conditions noted are these: route intravenous.
The test system of test [12] is Rattus norvegicus. The experiment in a line: Maximum increase in dP/dt when administered intravenously in rats at 3 mg/kg. It counts as functional. The conditions noted are these: route intravenous.
For test [13], the system named is Canis familiaris. The experiment in a line: Maximum increase in dP/dt when administered intravenously in dogs at 1 mg/kg. It counts as functional, Canis lupus familiaris. Conditions: route intravenous.
For test [14], the system named is Felis catus. The test is described as follows: Maximum increase in dP/dt when administered intravenously in cats at 3 mg/kg dose. It counts as functional. Conditions: route intravenous.
In test [15] the test system is Canis familiaris. The test is described as follows: Maximum increase in dP/dt when administered intravenously in dogs at 0.3 mg/kg dose. It is filed as functional, Canis lupus familiaris. Conditions: route intravenous.
Test [16] relates to Canis familiaris. The test is described as follows: Amount of time during which increase in administered orally in conscious dogs at 0.5 mg/kg. It counts as functional, Canis lupus familiaris. Conditions: route oral.
The test system of test [17] is Canis familiaris. The test is described as follows: Time after which maximum increase in contractility was observed when administered orally in conscious dogs at 0.5 mg/kg. It is filed as functional, Canis lupus familiaris. The conditions noted are these: route oral.
Test [18] concerns Canis familiaris. The test is described as follows: Maximum increase in dP/dt60 when administered orally in dogs at dose 0.5 mg/kg. The conditions noted are these: route oral. It counts as functional, Canis lupus familiaris.
Test [19] deals with Rattus norvegicus. The test is described as follows: Maximum increase in dP/dt when administered intravenously in rats at 1 mg/kg dose. It counts as functional. The arrangement: unit not given here. Conditions: route intravenous.
For test [20], the system named is Felis catus. The experiment in a line: Maximum increase in dP/dt when administered intravenously in cats at 3 mg/kg. It is filed as functional. The conditions noted are these: route intravenous.
The subject of test [21] is Canis familiaris. The experiment in a line: Amount of time during which increase in administered orally in conscious dogs at 0.3 mg/kg. It counts as functional, Canis lupus familiaris. The conditions noted are these: route oral.
For test [22], the system named is Canis familiaris. The experiment in a line: Maximum increase in dP/dt60 when administered orally in dogs at dose 0.3 mg/kg. It is filed as functional, Canis lupus familiaris. The conditions noted are these: route oral.

For `CC(C)c1nc2cc3c(cc2[nH]1)C(C)(C)C(=O)N3`, the ED1.5 in the test listed under Felis catus [1] came to 0.09 mg/kg; in the test listed under Canis familiaris [3], 0.46 mg/kg; in the test filed under Rattus norvegicus [7], 0.22 mg/kg. Moreover, the figures for the Max in the test on Canis familiaris [2], with Canis familiaris [4] and with Rattus norvegicus [8] were 1.9 mHg s-1, 2.2 mmHg s-1 and 2.3 mmHg s-1, respectively. Further, the Duration with Canis familiaris [5] stood at 3 h. The Time with Canis familiaris [6] was found to be 30 min.

For `CC1(C)C(=O)Nc2cc3[nH]c(-c4cnccn4)nc3cc21`, the ED1.5 worked out at 0.04 mg/kg in the test filed under Felis catus [1] and 0.1 mg/kg in the test listed under Rattus norvegicus [7]. Besides, the Max in the test on Felis catus [9] stood at 2.7 mHg/s; in the test on Rattus norvegicus [10], 2.6.

Consider `CCn1c(O)nc2cc3[nH]c(-c4ccncc4)nc3cc21`, for which the ED1.5 in the test filed under Felis catus [1] came out at 0.007 mg/kg; in the test listed under Rattus norvegicus [7] it was 0.05 mg/kg. The values for the Max with Felis catus [11] and in the test with Rattus norvegicus [12] were 3.1 mmHg s-1 and 2.3 mmHg s-1, respectively. Besides, the Duration in the test on Canis familiaris [5] was determined as 0 h.

On to `Cn1c(O)nc2cc3[nH]c(-c4ccncc4)nc3cc21`, for which the ED1.5 in the test listed under Felis catus [1] turned out to be 0.01 mg/kg; in the test listed under Canis familiaris [3], 0.12 mg/kg; in the test listed under Rattus norvegicus [7], 0.33 mg/kg. Also, the Max in the test with Canis familiaris [13] is listed as 2.9 mmHg s-1; in the test on Rattus norvegicus [10], 2.6. Besides, in the test with Canis familiaris [5], the Duration is 0 h.

With `CC1(C)C(=O)Nc2cc3[nH]c(O)nc3cc21`, the ED1.5 in the test listed under Felis catus [1] turned out to be 0.08 mg/kg; in the test filed under Canis familiaris [3] it was 0.12 mg/kg; in the test listed under Rattus norvegicus [7], 0.13 mg/kg. For the same compound, the Max with Felis catus [14] was found to be 2.9 mmHg s-1; with Canis familiaris [15], 2 mHg/s; in the test with Canis familiaris [18], 1.6 mHg s-1; in the test with Rattus norvegicus [19], 3. The Duration in the test with Canis familiaris [16] was 6 h; with Canis familiaris [5] it was above 6 h. Moreover, the Time in the test on Canis familiaris [6] amounted to 45 min; in the test on Canis familiaris [17] it was 60 min.

As to `Cc1nc2cc3c(cc2[nH]1)C(C)(C)C(=O)N3`, the ED1.5 in the test listed under Felis catus [1] was 0.17 mg/kg; in the test filed under Canis familiaris [3], 0.46 mg/kg; in the test filed under Rattus norvegicus [7], 0.48 mg/kg. In addition, the Max with Felis catus [20] is 2.8 mHg/s; with Canis familiaris [2] it was 2.2 mHg s-1; in the test with Rattus norvegicus [10], 3.5. In the test with Canis familiaris [5], this compound came in with a Duration of 3 h. Further, in the test on Canis familiaris [6], the Time came out at 30 min.

`CC1(C)C(=O)Nc2ccc(C3=NNC(=O)CC3)cc21` [INDOLIDAN] showed a Duration in the test with Canis familiaris [21] above 6 h. Moreover, the Max with Canis familiaris [22] was determined as 2.8 mmHg s-1. The compound further yielded a Time with Canis familiaris [6] of 45 min.
